From patent US20240101548A1, “HYDROXAMATE COMPOUND, PREPARATION METHOD THEREFOR AND APPLICATION THEREOF” (SHENZHEN CHIPSCREEN BIOSCIENCES CO., LTD., priority 2020, published 2024) come the findings set out here.

Where two headings read alike, the source gives them in different places.

Common to all, as to format: cell-based, human
Experiment [1] has as its system IL-10-induced JAK1/TYK2 signal pathway. Description: IL-10-induced JAK1/TYK2 signal pathway STAT3-Luc reporter gene assay in U2OS cells. The note with it: U2OS cells, STAT3-Luc reporter, IL-10 10 ng/mL, read-out: Half inhibition dose (IC50) on IL-10-induced JAK1/TYK2 signal pathway. An excerpt:
Cytokine IL-10 is one of the main members of IL-10 family. The receptor that cytokine IL-10 binds to consists of two kinds of subunits, i.e., IL-10R1 and IL-10R2, which respectively couple with JAK1 and TYK2. After the coupling of IL-10 with its receptor, interaction of phosphorylation occurs between JAK1 and TYK2 to form STAT3 docking site for phosphorylation of STAT3. The phosphorylated STAT3 enters the nucleus and drives the transcription and expression of downstream genes.
The reporter gene plasmid STAT3-Luc Reporter used in the present invention has luciferase expression sequence as the reporter gene, upstream of which is a promoter sequence containing multiple STAT3 binding sites. When phosphorylated STAT3 induced by IL-10 signal pathway binds to the promoter of STAT3-Luc Reporter plasmid, luciferase is transcribed and expressed. The excitation fluorescence catalyzed by Luciferase can be detected after the addition of […] substrate, whose intensity can quantitively reflect the activation level of the signal pathway.
Human osteosarcoma cell line U20S was commercially available from American Type Culture Collection (ATCC), and relevant culture conditions referred to those from ATCC. It was known that such cell line could express IL-10R2, JAK1, TYK2 and STAT3, therefore, by exogenous expression of IL-10R1 gene, a complete IL-10 signal pathway could be established. The human IL-10R1 subunit overexpression plasmid pCMV3-IL10RA-EGFP was constructed by Shanghai Genechem Co., Ltd., and capable of simultaneously expressing enhanced green fluorescent protein. In the subsequent detection and calculation, the signal of green fluorescent protein in the tested sample was used as a reference for transfection efficiency calibration of the luciferase reporter gene signal. Reporter plasmid STAT3-Luc Reporter was commercially available from Ji Man Biotech (Shanghai) Co., Ltd.
X-tremeGENE 9 DNA Transfection Reagent (Roche) was used for the transfection of plasmid DNA into cells, Cell Culture Lysis 5× reagent (Promega) and Luciferase Assay System (Promega) were used in cell lysate preparation and enzyme-substrate reaction for luciferase reporter gene detection. Green fluorescent protein signal and luciferase reporter gene signal were both detected by Tecan Spark™ 10M multimode microplate reader. The inhibition rate of the tested compound on the IL-10 signal pathway reporter gene signal and the half inhibition dose IC50 were both calculated using Microsoft Excel and GraphPad Prism 7.00 software.
U2OS cell line was inoculated in 96-well plate with flat bottom at 5000 cells per well, and cultured overnight at 37° C. and 5% CO2 followed by plasmid transfection. Following the instructions and using X-tremeGENE 9 DNA Transfection Reagent, pCMV3-IL10RA-EGFP and STAT3-Luc Reporter plasmids were co-transfected into the inoculated U2OS cells. After 24 hours of transfection, the tested compound was added respectively for a final concentration of 0, 0.1, 0.3, 1, 3, 10, 30, 100, or 300 nM. After 6 hours of culture at 37° C. and 5% CO2, IL-10 cytokine (Human IL-10 PEPROTECH 200-10-10UG) was added to each well for a final concentration of 10 ng/mL, the well in which neither compound nor cytokine was added was designated as 0% control well. The culture was continued for 24 hours before testing.
Cell lysate was prepared by using Cell Culture Lysis reagent and transferred to 96-well plate with half-well clear bottom. The green fluorescent protein signal value was detected at Ex485/Em520 using Tecan microplate reader, and recorded. After adding to each well the luciferase substrate from Luciferase Assay System, the signal value of luciferase-substrate reaction was immediately detected at 560 nm using Tecan microplate reader, and recorded.
Using Microsoft Excel software, the signal value of luciferase-substrate reaction of each well was calculated and calibrated based on the signal value of green fluorescent protein of each well. […]

Experiment [2] concerns IL-2-induced JAK1/JAK3 signal pathway. Description: IL-2-induced proliferation of KHYG-1 cells (JAK1/JAK3 signal). Particulars: KHYG-1 cell proliferation, IL-2 10 ng/mL, 72 hours, read-out: Inhibition activity IC50 on IL-2-induced JAK1/JAK3 signal pathway. An outline of the steps: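 Controls were wells lacking both compound and cytokine (0%) and compound-free IL-2 wells (100%). C50 was calculated from inhibition rates across doses.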

The subject of experiment [3] is EPO-induced JAK2 signal pathway. Description: EPO-induced proliferation of UT-7 cells (JAK2 signal). The note with it: UT-7 cell proliferation, EPO 10 ng/mL, 72 hours, read-out: Inhibition activity IC50 on EPO-induced JAK2 signal pathway. An outline of the steps:
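[…] was derived from inhibition rates across doses, scaled between wells lacking compound and cytokine (0) and EPO without compound (100), using alamarBlue fluorescence at Ex530/Em590. Compound (final 0-10000 nM) and 10 ng/mL EPO were given to UT-7 cells at 15000 per well for 72 h at 37° C.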

As for `CONC(=O)c1cnc(Nc2cc(C)c(F)cn2)cc1Nc1ccccc1N(C)S(C)(=O)=O` [Example 44, 6-((5-fluoro-4-methylpyridin-2-yl)amino)-N-methoxy-4-((2-(N-methylmethanesulfonamido)phenyl)amino)nicotinamide], the IC50 was 0.00104 µM in experiment [1] (Homo sapiens, U2OS); over 10 µM in experiment [2] (Homo sapiens); over 10 µM in experiment [3] (Homo sapiens, UT7).

As to `CONC(=O)c1cnc(Nc2cc(C)nc(C)n2)cc1Nc1ccccc1N(C)S(C)(=O)=O` [Example 45], the IC50 was 0.000855 µM in experiment [1] (Homo sapiens, U2OS); over 10 µM in experiment [2] (Homo sapiens); over 10 µM in experiment [3] (Homo sapiens, UT7).

With `CONC(=O)c1cnc(Nc2ccc(F)cn2)cc1Nc1ccc(Cl)cc1N(C)S(C)(=O)=O` [Example 46, 4-((4-chloro-2-(N-methylmethanesulfonamido)phenyl)amino)-6-((5-fluoropyridin-2-yl)amino)-N-methoxy nicotinamide], the IC50 in experiment [1] (Homo sapiens, U2OS) was 0.00109 µM; in experiment [2] (Homo sapiens) it was over 10 µM; in experiment [3] (Homo sapiens, UT7) it was over 10 µM.

In the case of `CONC(=O)c1cnc(Nc2cccc(F)n2)cc1Nc1ccc(Cl)cc1N(C)S(C)(=O)=O` [Example 47, 4-((4-chloro-2-(N-methylmethanesulfonamido)phenyl)amino)-6-((6-fluoropyridin-2-yl)amino)-N-methoxy nicotinamide], the IC50 was 0.00134 µM in experiment [1] (Homo sapiens, U2OS); over 10 µM in experiment [2] (Homo sapiens); over 10 µM in experiment [3] (Homo sapiens, UT7).

As for `CONC(=O)c1cnc(Nc2ccc(F)cn2)cc1Nc1ccc(C)nc1N(C)S(C)(=O)=O` [Example 60], the IC50 in experiment [1] (Homo sapiens, U2OS) is 0.00115 µM; in experiment [2] (Homo sapiens) it was over 10 µM; in experiment [3] (Homo sapiens, UT7), over 10 µM.

Regarding `CONC(=O)c1cnc(Nc2ccc(F)cn2)cc1Nc1ccc(OCC2CC2)cc1N(C)S(C)(=O)=O` [Example 61, 4-((4-(cyclopropylmethoxy)-2-(N-methylmethanesulfonamido)phenyl)amino)-6-((5-fluoropyridin-2-yl)amino)-N-methoxy nicotinamide], the IC50 in experiment [1] (Homo sapiens, U2OS) was 0.0017 µM; in experiment [2] (Homo sapiens), over 10 µM; in experiment [3] (Homo sapiens, UT7) it was over 10 µM.

In the case of `CONC(=O)c1cnc(Nc2cccc(F)n2)cc1Nc1ccc(OCC2CC2)cc1N(C)S(C)(=O)=O` [Example 62, 4-((4-(cyclopropylmethoxy)-2-(N-methylmethanesulfonamido)phenyl)amino)-6-((6-fluoropyridin-2-yl)amino)-N-methoxy nicotinamide], the IC50 in experiment [1] (Homo sapiens, U2OS) was 0.00129 µM; in experiment [2] (Homo sapiens), over 10 µM; in experiment [3] (Homo sapiens, UT7), over 10 µM.

As for `CONC(=O)c1cnc(NC(=O)C2CC2)cc1Nc1ccc(OCC2CC2)cc1N(C)S(C)(=O)=O` [Example 63, 6-(cyclopropylcarboxamido)-4-((4-(cyclopropylmethoxy)-2-(N-methylmethanesulfonamido)phenyl)amino)-N-methoxy nicotinamide], the IC50 was 0.000865 µM in experiment [1] (Homo sapiens, U2OS); over 10 µM in experiment [2] (Homo sapiens); over 10 µM in experiment [3] (Homo sapiens, UT7).

For the compound `[2H]C([2H])([2H])ONC(=O)c1cnc(Nc2cccc(F)n2)cc1Nc1ccc(C2CC2)cc1N(C)S(C)(=O)=O` [Example 68, 4-((4-cyclopropyl-2-(N-methylmethanesulfonamido)phenyl)amino)-6-((6-fluoropyridin-2-yl)amino)-N-(methoxy-d3)nicotinamide], the IC50 in experiment [1] (Homo sapiens, U2OS) was 0.00131 µM; in experiment [2] (Homo sapiens), over 10 µM; in experiment [3] (Homo sapiens, UT7), over 10 µM.

Consider `CONC(=O)c1cnc(NC(=O)C2CC2)cc1Nc1cccc(-c2ncn(C)n2)c1OC` [Example 69, 6-(cyclopropylcarboxamido)-N-methoxy-4-((2-methoxy-3-(1-methyl-1H-1,2,4-triazol-3-yl)phenyl)amino)-nicotinamide], for which the IC50 in experiment [1] (Homo sapiens) was 0.00278 µM; in experiment [2] (Homo sapiens), over 10 µM; in experiment [3] (Homo sapiens, UT7) it was over 10 µM.

Take `CONC(=O)c1cnc(NC(=O)C2CC2)cc1Nc1ccc(F)cc1N(C)S(C)(=O)=O` [Example 70, 6-(cyclopropylcarboxamido)-4-((4-fluoro-2-(N-methylmethanesulfonamido)phenyl)amino)-N-methoxy nicotinamide]: the IC50 is 0.00244 µM in experiment [1] (Homo sapiens); over 10 µM in experiment [2] (Homo sapiens); over 10 µM in experiment [3] (Homo sapiens, UT7).

For `CONC(=O)c1cnc(NC(=O)C2CC2)cc1Nc1ccc(Cl)cc1N(C)S(C)(=O)=O` [Example 79, 4-((4-chloro-2-(N-methylmethanesulfonamido)phenyl)amino)-6-(cyclopropylcarboxamido)-N-methoxy nicotinamide], the IC50 in experiment [1] (Homo sapiens, U2OS) was 0.000889 µM; in experiment [2] (Homo sapiens), over 10 µM; in experiment [3] (Homo sapiens, UT7) it was over 10 µM.

Consider `CONC(=O)c1cnc(Nc2ccc(F)cn2)cc1Nc1ccc(Cl)cc1N(C)S(C)(=O)=O` [Example 80, 4-((4-chloro-2-(N-methylmethanesulfonamido)phenyl)amino)-6-((5-fluoropyridin-2-yl)amino)-N-methoxy nicotinamide], for which the IC50 is 0.000961 µM in experiment [1], over 10 µM in experiment [2] and over 10 µM in experiment [3].

As to `CONC(=O)c1cnc(NC(=O)C2CC2)cc1Nc1ccc(C)cc1N(C)S(C)(=O)=O` [Example 81, 6-(cyclopropylcarboxamido)-N-methoxy-4-((4-methyl-2-(N-methylmethanesulfonamido)phenyl)amino)nicotinamide], the IC50 in experiment [1] (Homo sapiens) is 0.0015 µM; in experiment [2] (Homo sapiens) it was over 10 µM; in experiment [3] (Homo sapiens, UT7), over 10 µM.

For the compound `CCONC(=O)c1cnc(NC(=O)C2CC2)cc1Nc1ccccc1N(C)S(C)(=O)=O` [Example 90, 6-(cyclopropylcarboxamido)-N-ethoxy-4-((2-(N-methylmethanesulfonamido)phenyl)amino)nicotinamide], the IC50 in experiment [1] (Homo sapiens, U2OS) was 0.0014 µM; in experiment [2] (Homo sapiens), over 10 µM; in experiment [3] (Homo sapiens, UT7), over 10 µM.

As to `CP(C)(=O)c1ccccc1Nc1cc(NC(=O)C2CC2)ncc1C(N)=O` [Example 93, 6-(cyclopropylcarboxamido)-4-((2-(dimethylphosphoryl)phenyl)amino)nicotinamide], the IC50 in experiment [1] (Homo sapiens, U2OS) was 0.279 µM; in experiment [2] (Homo sapiens) it was over 10 µM; in experiment [3] (Homo sapiens, UT7), over 10 µM.

`CCONC(=O)c1cnc(Nc2ccc(F)cn2)cc1Nc1ccc(C2CC2)cc1N(C)S(C)(=O)=O` [Example 95, 4-((4-cyclopropyl-2-(N-methylmethanesulfonamido)phenyl)amino)-N-ethoxy-6-((5-fluoropyridin-2-yl)amino)nicotinamide]: the IC50 in experiment [1] (Homo sapiens, U2OS) was 0.00228 µM; in experiment [2] (Homo sapiens) it was over 10 µM; in experiment [3] (Homo sapiens, UT7), over 10 µM.
